According to US20080194640A1, “Optically Active Tetrahydronaphthalene Derivative” (priority 2005, published 2008):

Columns and labels:
[1] = target: T1, C5a receptor (Homo sapiens, UniProt P21730); assay: C5a receptor binding assay ([125I]-human C5a, human peripheral blood neutrophil); details: [125I]-C5a 200 pM, 4° C. for 2 hr, read-out: IC50 value, inhibition of [125I]-human C5a binding
T1 construct: neutrophil fraction was separated from human peripheral intravenous blood; endogenous in cells; host or cells: human peripheral blood neutrophils (whole cells)
T1 sequence (P21730 1-350): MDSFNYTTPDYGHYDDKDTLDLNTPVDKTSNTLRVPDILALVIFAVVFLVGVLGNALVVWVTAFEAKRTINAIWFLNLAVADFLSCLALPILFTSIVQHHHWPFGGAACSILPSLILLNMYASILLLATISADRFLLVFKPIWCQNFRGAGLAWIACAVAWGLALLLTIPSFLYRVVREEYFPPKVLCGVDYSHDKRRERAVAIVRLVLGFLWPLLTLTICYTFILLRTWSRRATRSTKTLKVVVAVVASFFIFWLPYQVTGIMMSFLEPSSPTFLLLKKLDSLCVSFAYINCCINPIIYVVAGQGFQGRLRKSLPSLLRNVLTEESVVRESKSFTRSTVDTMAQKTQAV
Method: The C5a receptor binding inhibitory action of C5a and the test compound was evaluated by a receptor binding assay comprising of human peripheral blood neutrophil, which expresses the C5a receptor, and [^125I]-human C5a (Amersham Pharmacia Biotech) in a MultiScreen (MILLIPORE). First, neutrophil fraction was separated from human peripheral intravenous blood using lympholyte-poly (Cedarlane), and suspended in a Binding buffer [50 mM HEPES, 1 mM CaCl2, 5 mM MgCl2, 0.5% bovine albumin (BSA, SIGMA), 0.02% NaN3 (pH 7.2)]. The binding assay was started by the addition of 1×10^5 cells/50 μL neutrophil suspension, 25 μL of a test compound solution (obtained by dissolving the test compound in N,N-dimethylformamide to a final concentration of 10 mmol/L and diluting with binding buffer), and 25 μL of [^125I]-C5a solution (final concentration 200 pM), to each well of the MultiScreen. […] After drying the MultiScreen, the radioactivity on the filter was measured using a gamma counter.
The rate of inhibition (% inhibition) of C5a binding by the test compound was calculated by the following formula using the count value obtained without addition of the test compound as Total, the count value obtained with addition of non-labeled C5a as Non, and the count value obtained with addition of the test compound as Test. […]

[2] = Evaluation of biological availability (bioavailability) in rat; assay type: in vivo; details: for AUC: rat, fasted female SD rats, plasma
Method: Free base•Form-I crystal was administered to female SD rats fasted from the day before the experiment and the plasma concentration was measured under the following conditions. As a result, the areas under blood concentration-time curve (AUC) of the drug after intravenous administration and oral administration are as shown in Table 1.
• Dosing formulation: 0.5 mg/ml in aqueous physiological saline. • Dose: 1 mg/2 ml/kg • Administration method: bolus administration from the tail vein Collection of blood samples: About 0.1-0.2 mL of blood was taken from the cervical vein at 3 min, 10 min, 30 min, 1 hr, 2 hr, 4 hr and 6 hr after administration. The blood was centrifuged, and the plasma was separated.
• Dosing formulation: 2 mg/ml suspension adjusted by gradually adding aqueous hydroxypropylmethylcellulose solution to the compound of the present invention thoroughly triturated in an agate mortar. • Dose: 10 mg/5 ml/kg • Administration method: Forcible administration into the stomach • Collection of blood samples: About 0.1-0.2 mL of blood was taken from the cervical vein at 30 min, 1 hr, 2 hr, 4 hr, 6 hr, 8 hr and 24 hr after administration. The blood was centrifuged, and the plasma was separated.
The plasma concentration of the administered compound was measured by LC-MS/MS.
LC conditions • Column: Capcellpak C18 UG-120 (2.0φ mm×50 mm, S-5 μm, Shiseido Co., Ltd.) • Mobile phase: acetonitrile • Flow rate: 0.25 mL/min • Column temperature: room temperature • Auto sampler temperature set to: 25° C. • Gradient setting: • 0 min→0.6 min:25%→25% • 0.6 min→3.6 min:25%→75% • 3.6 min→6 min:75%→75% • 6 min→6.1 min:75%→25% • 6.1 min→9.5 min:25%→25% • MS/MS conditions • Ionization method: ESI • Capillary temperature: 350° C. • Sheath gas pressure: 80 psi • Spray voltage: 4.5 kV.
The plasma concentration of the racemate was measured by a similar method, and the biological availability was calculated and found to be 20%.

Work on `CCn1cc(CN(C(=O)C2CCCc3c(O)cccc32)c2ccc(C(C)C)nc2)cn1` (racemic) [racemate of the compound of Example 3, N-[(1-ethyl-1H-pyrazol-4-yl)methyl]-5-hydroxy-N-(6-isopropylpyridin-3-yl)-1,2,3,4-tetrahydronaphthalene-1-carboxamide, reference compound] yielded an IC50 [1] of 23 nM, a biological availability ([2]; female SD rats, oral 10 mg/kg vs intravenous 1 mg/kg) of 20% and an AUC ([2]; intravenous administration 1 mg/kg) of 289 ng·h/mL. For the same compound, the AUC ([2]; oral administration 10 mg/kg) was 572 ng·h/mL.
